Consider one compound from article PMC12647892, “State-selective small molecule degraders that preferentially remove aggregates and oligomers” (Nature Communications, 2025).

Each structure is given as a SMILES string.

One may read the Kd as a measure of binding affinity in units of concentration. A high value points to weaker binding.

The assay deals with T1, TRIM21 PRYSPRY (Homo sapiens, UniProt P19474).
T1 construct: PRYSPRY domain (TRIM21his-PS)
Nature of the assay: crystal structure; fluorescence polarisation, tryptophan quenching, nanoDSF. The format is binding. Background: In fluorescence polarisation assays a small probe gives low polarisation when free and higher when bound to something large.

T1 sequence (P19474 287-465 limits assumed): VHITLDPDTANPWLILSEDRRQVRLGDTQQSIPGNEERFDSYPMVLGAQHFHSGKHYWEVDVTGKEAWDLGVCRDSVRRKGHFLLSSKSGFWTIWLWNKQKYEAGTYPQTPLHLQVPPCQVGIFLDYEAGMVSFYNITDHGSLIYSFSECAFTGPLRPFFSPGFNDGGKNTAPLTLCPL

With `CNC(=O)[C@H](Cc1ccncc1)NC(=O)[C@@H]1C[C@@H](C2CCCCC2)CN1C(=O)C[C@H](N)c1ccccc1OC` [MRC37], the Kd turned out to be 400 nM.
